What was measured:
[1] = system: HTG22 (DNA, G4) AGGGTTAGGGTTAGGGTTAGGG; assay: CD titration, 285 nm; settings: K+ (100 mM; K+ and Na+ swapped elsewhere in the source); 5 μM DNA, Tris-HCl
[2] = system: c-myc (pu27) (DNA, G4) TGGGGAGGGTGGGGAGGGTGGGGAAGG; assay: FRET melting; settings: K+ (100 mM; K+ and Na+ swapped elsewhere in the source); various concentrations
[3] = system: Hairpin DNA (DNA, hairpin) TTGGCCAATGTTTGGCCAA; assay: UV melting, 260 nm; settings: 100 mM KCl; DNA:drug 1:10, 3 μM DNA; 20 mM cacodylic acid buffer, pH 7.3
[4] = system: HTG22 (FRET, FAM/TAMRA) (DNA, G4) AGGGTTAGGGTTAGGGTTAGGG; assay: FRET melting; settings: 20 μM compound, DNA:drug 1:10
[5] = system: HTG22 (5'-biotin, SPR) (DNA, G4) AGGGTTAGGGTTAGGGTTAGGG; assay: SPR kinetics, bivalent ligand model; settings: K+ (100 mM; K+ and Na+ swapped elsewhere in the source), stronger of two sites
[6] = system: HTG22 (DNA, G4) AGGGTTAGGGTTAGGGTTAGGG; assay: UV-vis absorption titration; settings: K+ (100 mM; K+ and Na+ swapped elsewhere in the source), 15 μM compound, 0-60 μM DNA, Tris-HCl
[7] = system: c-kit 1 (DNA, G4) GGGAGGGCGCTGGGAGGAGGG; assay: FRET melting; settings: various concentrations
[8] = system: Hairpin DNA (5'-biotin, SPR) (DNA, hairpin) TTGGCCAATGTTTGGCCAA; assay: SPR
[9] = K+ (100 mM; K+ and Na+ swapped elsewhere in the source)
[10] = Na+ (100 mM; K+ and Na+ swapped elsewhere in the source)

Row | SMILES | binding [1] | binding [2] | Delta Tm [3] [°C] | Delta Tm [4, 9] [°C] | Delta Tm [4, 10] [°C] | Ka2 ([5]; Ka1 1.65 × 10^5) [M⁻¹] | binding ([6]; 16.41% hypochromicity, 3 nm red shift) | binding [7, 9] | binding [7, 10] | Ka [8] [M⁻¹] | Ka2 ([5]; Ka1 2.82 × 10^5) [M⁻¹] | binding ([6]; 16.89% hypochromicity, 1 nm red shift)
1 | CN1CCN(Cc2nc3ccc4c(c3[nH]2)C(=O)c2ccccc2C4=O)CC1 | yes | no | 0.03 | 5.85 | 0.55 | 169000 | yes | yes | no | 60000 |  | 
2 | C[N+]1(C)CCN(Cc2nc3ccc4c(c3[nH]2)C(=O)c2ccccc2C4=O)CC1 | yes | no | 0.10 | 8.04 | 1.00 |  |  | yes | no | 40000 | 384000 | yes

Source: publication PMC4980623 (2016)
